Experimental data from patent publication US9682151B2, “Peptides whose uptake in cells is controllable” (The Regents of the University of California, priority 2009, dated 2017).

Key:
[1] = Fluorescence uptake of Cy5-labeled selective transport molecules in tumor and muscle (Table 2), MDA-MB 435; type: in vivo, mice; details: nude, mouse, in vivo, iv; MDA-MB 435 xenograft
Method: (§1) Xenografts with HT1080 human fibroscarcoma cells (ATCC) or MDA-MB 435 human melanoma cells were used. Allografts were generated in the lab with 8119 murine mammary adenocarcinoma cells and B16F10 murine melanoma cells. 1×10^6 cells (either 8119 or BI6F10) were injected intramuscularly into the left flank of albino C57BL/6 mice. Tumor allografts were monitored until tumor size was approximately 1 cm in largest diameter (approximately 7-10 days).
(§2) Briefly 30 mg tissues was homogenized and heated in SDS buffer, frozen, and then imaged by fluorescence. SUV ((moles/g tissue)/(moles injected/weight of the animal)) values were determined by comparing experimental fluorescence to standard curves derived by peptide spiked tissue processed similarly.
(§3) To test whether selective transport molecules are taken up differentially between tumor and normal tissue, allografts derived from spontaneous mammary adenocarcinoma tumors in transgenic mice (line 8119, MMTV-PyMT) and the murine melanoma cell line B16F10 transplanted into immune competent mice, and human cancer cell lines (MDA-MB 435 melanoma and HT1080 fibrosarcoma) xenografted into nude mice, were imaged after intravenous injection of Cy5-labeled selective transport molecules and sufficient time for elimination of uncleaved selective transport molecules. Cy5 was chosen as a labeling marker because of its reduced tissue absorption in the near infrared range.

[2] = tested on: MDA-MB 435 human melanoma cells; assay: as above; type: in vivo, mice
Method: as §1, §2, §3

[3] = Fluorescence uptake of Cy5-labeled selective transport molecules in tumor and muscle (Table 2), HT1080; type: in vivo, mice; details: nude, mouse, in vivo, iv; HT1080 xenograft
Method: as §1, §2, §3

[4] = tested on: HT1080 human fibroscarcoma cells; assay: as above; type: in vivo, mice; details: HT1080 xenograft
Method: as §1, §2, §3

[5] = Fluorescence uptake of Cy5-labeled selective transport molecules in tumor and muscle (Table 2), 8119; type: in vivo, mice; details: albino C57BL/6, mouse, in vivo, iv; 8119 allograft
Method: as §1, §2, §3

[6] = tested on: 8119 murine mammary adenocarcinoma cells; assay: as above; type: in vivo, mice; details: 8119 allograft
Method: as §1, §2, §3

[7] = Fluorescence uptake of Cy5-labeled selective transport molecules in tumor and muscle (Table 2), B16F10; type: in vivo, mice; details: albino C57BL/6, mouse, in vivo, iv; B16F10 allograft
Method: as §1, §2, §3

[8] = tested on: B16F10 murine melanoma cells; assay: as above; type: in vivo, mice; details: B16F10 allograft
Method: as §1, §2, §3

HT1080 cells = assay: Residual tumor cell quantification with Alu PCR after guided surgery; type: in vivo, mice; details: free 10 nmoles 6 hours, dendrimer 2 nmoles 48 hours prior to surgery
Method: Animals used for quantification of residual tumor cells after surgery were performed on xenograft of HT1080 cells generated as detailed above Animals were anesthetized with 80 mg/kg ketamine and 40 mg/kg midazolam. Following skin incision and retraction, tumors were removed with microsurgical technique using a dissecting microscope (Zeiss, Lumar).
Fluorescence guidance of tumor excision was performed as detailed above for the survival studies with GFP, free selective transport molecule (10 nmoles; 6 hours prior to surgery) or dendrimer selective transport molecule (2 nmoles; 48 hours prior to surgery). For animals in the GFP guidance arm, the surgical field was assessed through the dissecting scope with excitation and emission parameters for GFP. […] Following completion of tumor resection, the remaining surgical bed was resected with at least a 5 mm margin in all contiguous dimensions and analyzed for Alu sequences. Alu PCR analysis of the remaining surgical bed for residual tumor cells were performed. […]
To quantify the efficacy of tumor excision with selective transport molecule guidance, we used Alu PCR to measure residual human (cancer) cells remaining in the tumor bed after surgical excision.

[9] = Stability of pDox by analytical HPLC and mass spectra; type: physicochemical
Method: pDox dendrimers were synthesized with the intent to coat the dendrimers with one pDox and three Cy5s thus making the dendrimers brightly fluorescent in the far-red. The pDox dendrimer samples that were incubated overnight in pH 7.4 and pH 5 buffer as described previously were injected on HPLC/mass spec. HPLC was run using 30-60% Acetonitrile in water with 0.5% TFA gradient on a reverse phased column. Doxorubicin (470-490) and Cy5 (645-655) absorbance peaks were monitored to reveal a new doxorubicin peak in the pH 5 sample. This peak was proven to be free pDox based upon the mass spec. For quantitation, dendrimers were run on another HPLC using a different C18 reverse phase column with a 10-90% ACN gradient column with 0.14% TFA which has a fluorescence detector. […] To quantify the amount of pDox that was hydrolyzed off the dendrimer, 200 pmols of sample was injected and compared to a standard curve of 12, 36, and 60 pmols of pDox alone.
pDox was synthesized and reacted with the dendrimer via hydrazone linker as done with doxorubicin dendrimers discussed earlier. […] The labeling was so low that the absorbance was undetectable by UV Spectroscopy. It was only by fluorescence spectra measured on a plate reader that it was clear pDox was conjugated to the dendrimers but this was not able to be quantified. […]

HT1080 bearing mice = assay: Maximum tolerated dose of pDox

With `CCN1C(=CC=CC=CC2=[N+](CCCCCC(=O)NCCN3C(=O)CC(SC[C@@H](NC(=O)[C@@H](CCCNC(=N)N)NC(=O)[C@@H](CCCNC(=N)N)NC(=O)[C@@H](CCCNC(=N)N)NC(=O)[C@@H](CCCNC(=N)N)NC(=O)[C@@H](CCCNC(=N)N)NC(=O)[C@@H](CCCNC(=N)N)NC(=O)[C@@H](CCCNC(=N)N)NC(=O)[C@@H](CCCNC(=N)N)NC(=O)[C@@H](CCCNC(=N)N)NC(=O)CNC(=O)[C@H](C)NC(=O)[C@H](CSC)NC(=O)CNC(=O)[C@H](CC(C)C)NC(=O)[C@@H]4CCCN4C(=O)COCCNC(=O)[C@@H](CCC(=O)O)NC(=O)[C@@H](CCC(=O)O)NC(=O)[C@@H](CCC(=O)O)NC(=O)[C@@H](CCC(=O)O)NC(=O)[C@@H](CCC(=O)O)NC(=O)[C@@H](CCC(=O)O)NC(=O)[C@@H](CCC(=O)O)NC(=O)[C@@H](CCC(=O)O)NC(=O)CCC(=O)O)C(N)=O)C3=O)c3ccc(S(=O)(=O)[O-])cc3C2(C)C)C(C)(C)c2cc(S(=O)(=O)O)ccc21` (single isomer, unassigned) [Free Selective Transport Molecules] the tissue to tissue ratio [1] was 2.45, the “Ratio (tumor to muscle)” value ([2]; MDA-MB 435 xenograft) was 2.45 and the “Muscle (fluorescence uptake)” value ([2]; MDA-MB 435 xenograft, Cy5 label, intravenous) was 0.29 ± 0.068. For the same compound, the “Tumor (fluorescence uptake)” value ([2]; MDA-MB 435 xenograft, Cy5 label, intravenous, SUV defined) was 0.17 ± 0.05, the “contrast between tumor and adjacent normal tissue” value ([2]; same figures as the MDA-MB 435 ratios of Table 2) was 2.45 fold and the tissue to tissue ratio [3] was 3.82. The “Ratio (tumor to muscle)” value [4] was 3.82, the “Muscle (fluorescence uptake)” value ([4]; Cy5 label, intravenous) was 0.11 ± 0.08 and the “Tumor (fluorescence uptake)” value ([4]; Cy5 label, intravenous) was 0.42 ± 0.08. For the same compound, the tissue to tissue ratio [5] was 3.5, the “Ratio (tumor to muscle)” value [6] was 3.5 and the “Muscle (fluorescence uptake)” value ([6]; Cy5 label, intravenous) was 0.11 ± 0.06. The “Tumor (fluorescence uptake)” value ([6]; Cy5 label, intravenous) was 0.39 ± 0.12, the tissue to tissue ratio [7] was 2.4 and the “Ratio (tumor to muscle)” value [8] was 2.4. For the same compound, the “Muscle (fluorescence uptake)” value ([8]; Cy5 label, intravenous) was 0.10 ± 0.03, the “Tumor (fluorescence uptake)” value ([8]; Cy5 label, intravenous) was 0.24 ± 0.06 and the “log [DNA] (residual tumor DNA in surgical bed)” value (HT1080 cells) was 4.67±0.33.
In the case of `COc1cccc2c1C(=O)c1c(O)c3c(c(O)c1C2=O)C[C@@](O)(C(=O)CO)C[C@@H]3O[C@H]1C[C@H](N2C=CCC2)[C@H](O)[C@H](C)O1` [pDox, 2-pyrrolino doxorubicin], the stability [9] is reported as “severe stability problems”, the “effect on tumor growth” value (HT1080 bearing mice; 0.1 mg/kg) is reported as “significantly slowed tumor growth” and the lethality (HT1080 bearing mice; 0.3 and 1 mg/kg, two mice each) is reported as “died within 24 hours”. The maximum tolerated dose (HT1080 bearing mice; HT1080 bearing mice) was 0.1 mg/kg.
